Literature values as cited in patent US20260232602A1, “DRUG DELIVERY SYSTEMS AND METHODS COMPRISING POLYSIALIC ACID AND/OR OTHER POLYMERS” (Universidade de Santiago de Compostela, priority 2017, published 2026).

Conditions: stated with the drug's Mw and supplier

Row | SMILES | Log P
1 | CC(=O)O[C@@]12CO[C@@H]1C[C@H](O)[C@@]1(C)C(=O)[C@H](O)C3=C(C)[C@@H](OC(=O)[C@H](O)[C@@H](NC(=O)OC(C)(C)C)c4ccccc4)C[C@@](O)([C@@H](OC(=O)c4ccccc4)[C@H]21)C3(C)C [docetaxel] | 2.6
2 | C/C(=C\c1csc(C)n1)[C@@H]1C[C@@H]2O[C@]2(C)CCC[C@H](C)[C@H](O)[C@@H](C)C(=O)C(C)(C)[C@@H](O)CC(=O)O1 [patupilone] | 3.7
